The results in this text go back to ChEMBL document CHEMBL4411283, “The p53 stabilizing agent CP-31398 and multi-kinase inhibitors. Designing, synthesizing and screening of styrylquinazoline series” (Eur J Med Chem, 2019).

SMILES strings stand for the structures.

Assay [1] addresses Tyrosine-protein kinase Fyn (Homo sapiens, UniProt P06241). In words: Inhibition of Fyn A (unknown origin) at 0.5 uM preincubated for 10 mins followed by substrate addition and measured after 1 hr by ADP-Glo luminescence assay relative to control. (ADP-Glo turns the ADP formed in a reaction into a luminescent signal.)
In assay [2] the target is Tyrosine-protein kinase BTK (Homo sapiens, UniProt Q06187). Put plainly: Inhibition of BTK (unknown origin) preincubated for 10 mins followed by substrate addition and measured after 1 hr by ADP-Glo luminescence assay.
Tyrosine-protein kinase BTK, sequence (Q06187 whole entry): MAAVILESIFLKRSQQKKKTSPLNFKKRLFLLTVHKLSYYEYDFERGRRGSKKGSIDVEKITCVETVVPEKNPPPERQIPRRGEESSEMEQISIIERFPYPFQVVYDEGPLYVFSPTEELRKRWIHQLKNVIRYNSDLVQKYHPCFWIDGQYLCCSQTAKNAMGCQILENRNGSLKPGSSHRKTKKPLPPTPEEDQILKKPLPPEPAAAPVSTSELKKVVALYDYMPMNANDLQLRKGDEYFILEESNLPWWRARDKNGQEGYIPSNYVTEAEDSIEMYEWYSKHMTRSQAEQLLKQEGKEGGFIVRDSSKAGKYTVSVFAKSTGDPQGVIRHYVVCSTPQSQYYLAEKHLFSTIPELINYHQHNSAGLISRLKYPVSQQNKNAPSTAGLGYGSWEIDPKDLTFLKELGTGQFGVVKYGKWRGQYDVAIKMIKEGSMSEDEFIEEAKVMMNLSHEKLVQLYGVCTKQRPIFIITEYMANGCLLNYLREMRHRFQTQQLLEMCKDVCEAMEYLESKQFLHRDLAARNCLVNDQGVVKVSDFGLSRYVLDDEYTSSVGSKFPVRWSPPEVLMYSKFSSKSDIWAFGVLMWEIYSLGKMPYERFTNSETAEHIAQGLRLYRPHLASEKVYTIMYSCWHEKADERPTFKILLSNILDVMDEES
Assay [3] deals with HCT-116. Put plainly: cells. The conditions noted are these: Homo sapiens, HCT-116, 72 h.
Description: Antiproliferative activity against p53+/+ human HCT116 cells after 72 hrs by CellTiter 96 aqueous one solution assay
In assay [4] the test system is HCT-116. Put plainly: cells. The conditions noted are these: Homo sapiens, HCT-116, 72 h. The source holds these as a separate data set.
Description: Antiproliferative activity against p53-/- human HCT116 cells after 72 hrs by CellTiter 96 aqueous one solution assay
The next assay deals with MCF7. In words: cells. The conditions noted are these: Homo sapiens, MCF7, 72 h.
The next assay deals with A549. In words: cells. The settings on record: Homo sapiens, A549, 72 h.
The subject of the next assay is NHDF. In words: cells. The conditions noted are these: Homo sapiens, 72 h.
The target of assay [5] is Tyrosine-protein kinase ABL1 (Homo sapiens) (UniProt P00519). The conditions noted are these: at 0.5 µM.
Tyrosine-protein kinase ABL1 (Homo sapiens), sequence (P00519 whole entry, the tested form may be a part): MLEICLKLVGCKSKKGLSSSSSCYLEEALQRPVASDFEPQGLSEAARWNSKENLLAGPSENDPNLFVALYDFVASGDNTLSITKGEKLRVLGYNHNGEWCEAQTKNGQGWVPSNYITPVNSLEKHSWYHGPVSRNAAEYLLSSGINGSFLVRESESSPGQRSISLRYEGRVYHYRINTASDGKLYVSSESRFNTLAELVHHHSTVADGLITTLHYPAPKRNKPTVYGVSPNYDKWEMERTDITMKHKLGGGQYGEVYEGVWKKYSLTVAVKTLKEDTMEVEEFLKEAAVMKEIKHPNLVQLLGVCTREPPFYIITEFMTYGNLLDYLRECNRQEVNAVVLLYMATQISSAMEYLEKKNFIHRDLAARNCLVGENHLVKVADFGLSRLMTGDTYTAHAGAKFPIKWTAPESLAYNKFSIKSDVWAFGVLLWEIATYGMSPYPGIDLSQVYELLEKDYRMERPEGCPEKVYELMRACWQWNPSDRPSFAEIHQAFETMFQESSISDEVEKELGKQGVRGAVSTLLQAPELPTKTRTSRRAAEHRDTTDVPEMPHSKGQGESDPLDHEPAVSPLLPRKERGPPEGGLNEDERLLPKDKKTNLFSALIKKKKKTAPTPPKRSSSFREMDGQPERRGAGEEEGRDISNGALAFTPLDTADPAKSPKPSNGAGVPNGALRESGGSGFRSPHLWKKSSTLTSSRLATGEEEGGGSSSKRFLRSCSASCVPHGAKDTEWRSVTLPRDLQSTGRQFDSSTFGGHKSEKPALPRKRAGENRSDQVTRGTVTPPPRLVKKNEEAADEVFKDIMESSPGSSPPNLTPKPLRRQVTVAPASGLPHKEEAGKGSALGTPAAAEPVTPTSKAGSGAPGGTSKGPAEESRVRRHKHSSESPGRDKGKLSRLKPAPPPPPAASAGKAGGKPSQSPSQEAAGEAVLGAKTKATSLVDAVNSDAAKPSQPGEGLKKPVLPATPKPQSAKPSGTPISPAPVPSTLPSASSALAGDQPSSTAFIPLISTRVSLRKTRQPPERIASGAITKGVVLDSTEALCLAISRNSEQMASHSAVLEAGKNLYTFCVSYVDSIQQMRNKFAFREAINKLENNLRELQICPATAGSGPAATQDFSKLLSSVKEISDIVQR
Description: Inhibition of ABL1 (unknown origin) at 0.5 uM preincubated for 10 mins followed by substrate addition and measured after 1 hr by ADP-Glo luminescence assay relative to control
In assay [6] the target is Receptor tyrosine-protein kinase erbB-4 (Homo sapiens, UniProt Q15303). In words: Inhibition of human wild type ERBB4 (L690 to K994 residues) expressed in bacterial expression system at 5 uM relative to control.
Receptor tyrosine-protein kinase erbB-4, sequence (Q15303 whole entry, the tested form may be a part): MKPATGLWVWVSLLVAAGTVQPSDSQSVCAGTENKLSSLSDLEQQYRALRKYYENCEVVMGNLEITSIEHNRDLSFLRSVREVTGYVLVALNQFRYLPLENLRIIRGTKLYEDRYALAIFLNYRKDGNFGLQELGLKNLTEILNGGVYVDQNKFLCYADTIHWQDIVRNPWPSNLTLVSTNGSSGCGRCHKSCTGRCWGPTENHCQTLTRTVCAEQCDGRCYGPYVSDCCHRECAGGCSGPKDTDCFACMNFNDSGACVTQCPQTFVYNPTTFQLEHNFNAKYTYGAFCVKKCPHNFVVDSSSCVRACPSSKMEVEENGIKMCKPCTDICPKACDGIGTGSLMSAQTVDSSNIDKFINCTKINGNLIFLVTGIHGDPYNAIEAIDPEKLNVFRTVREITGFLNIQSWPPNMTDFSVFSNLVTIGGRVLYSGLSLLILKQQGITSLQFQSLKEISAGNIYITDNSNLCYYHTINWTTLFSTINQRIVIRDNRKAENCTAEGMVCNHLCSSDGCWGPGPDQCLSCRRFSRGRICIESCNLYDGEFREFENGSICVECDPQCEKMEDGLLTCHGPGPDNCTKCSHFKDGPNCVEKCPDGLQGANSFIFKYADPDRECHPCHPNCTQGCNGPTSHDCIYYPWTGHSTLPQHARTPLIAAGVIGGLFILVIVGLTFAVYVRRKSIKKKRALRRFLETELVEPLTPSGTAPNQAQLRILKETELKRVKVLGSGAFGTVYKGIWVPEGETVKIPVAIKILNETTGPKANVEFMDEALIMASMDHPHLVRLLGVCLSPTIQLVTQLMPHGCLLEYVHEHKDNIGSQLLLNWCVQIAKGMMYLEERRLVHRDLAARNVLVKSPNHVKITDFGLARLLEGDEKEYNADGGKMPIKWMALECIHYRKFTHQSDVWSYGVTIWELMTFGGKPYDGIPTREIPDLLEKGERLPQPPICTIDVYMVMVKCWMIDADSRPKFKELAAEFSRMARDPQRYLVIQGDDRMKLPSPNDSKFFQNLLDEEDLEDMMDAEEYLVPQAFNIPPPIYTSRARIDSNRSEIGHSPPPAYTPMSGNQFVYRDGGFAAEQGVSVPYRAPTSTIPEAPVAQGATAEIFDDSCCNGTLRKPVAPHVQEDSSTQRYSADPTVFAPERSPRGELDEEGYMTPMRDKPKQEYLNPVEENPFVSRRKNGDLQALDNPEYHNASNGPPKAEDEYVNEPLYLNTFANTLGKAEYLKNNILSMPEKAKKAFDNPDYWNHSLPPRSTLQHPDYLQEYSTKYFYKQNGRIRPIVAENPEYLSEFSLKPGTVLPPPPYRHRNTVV

Tyrosine-protein kinase Fyn, sequence (P06241 2-537 limits assumed): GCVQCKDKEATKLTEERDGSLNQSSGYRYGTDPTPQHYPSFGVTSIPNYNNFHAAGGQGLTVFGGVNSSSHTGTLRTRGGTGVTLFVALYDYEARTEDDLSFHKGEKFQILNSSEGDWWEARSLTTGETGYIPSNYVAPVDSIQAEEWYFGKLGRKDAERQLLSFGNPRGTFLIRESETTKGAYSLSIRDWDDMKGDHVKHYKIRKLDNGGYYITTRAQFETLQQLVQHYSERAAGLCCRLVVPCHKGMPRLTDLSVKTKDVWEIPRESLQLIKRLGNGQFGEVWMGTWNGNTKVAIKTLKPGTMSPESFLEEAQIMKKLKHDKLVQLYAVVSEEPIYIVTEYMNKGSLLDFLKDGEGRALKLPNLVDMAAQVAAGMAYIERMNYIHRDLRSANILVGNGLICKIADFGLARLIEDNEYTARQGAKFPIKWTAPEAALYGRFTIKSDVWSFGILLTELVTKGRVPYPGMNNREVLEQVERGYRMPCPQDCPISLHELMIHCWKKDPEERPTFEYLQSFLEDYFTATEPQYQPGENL
Description for A549: Antiproliferative activity against human A549 cells after 72 hrs by CellTiter 96 aqueous one solution assay
Description for MCF7: Antiproliferative activity against human MCF7 cells after 72 hrs by CellTiter 96 aqueous one solution assay
Description for NHDF: Antiproliferative activity against human NHDF cells after 72 hrs by CellTiter 96 aqueous one solution assay

By inhibition is commonly meant the share of the control response that was lost under treatment. High values mean a strong effect, low ones a weak effect. As a reminder, the IC50 is the concentration at which inhibition is half-maximal. For `O=[N+]([O-])c1cccc(/C=C/c2nc(Nc3cccc(O)c3)c3ccccc3n2)c1`, the inhibition in [1] was determined as 0%. Moreover, the IC50 came out at 0.88 µM in assay [2]; 10.9 µM with HCT-116 [3]; 10.8 µM with HCT-116 [4]; 10.1 µM in the assay on MCF7; 15.4 µM in the assay with A549; 11.2 µM in the assay on NHDF.

For the compound `Oc1ccc(Nc2nc(/C=C/c3cccc(Cl)c3)nc3ccccc23)cc1`, the inhibition in assay [1] worked out at 0%. The IC50 in the assay with HCT-116 [3] came to 21.9 µM; with HCT-116 [4] it was 22.7 µM; in the assay with MCF7, 9.19 µM; in the assay on A549, 14.8 µM; in the assay on NHDF, 14.2 µM.

Compound `COc1ccccc1/C=C/c1nc(Nc2cccc(O)c2)c2ccccc2n1` returned an inhibition in assay [1] of 0%. The IC50 in the assay with HCT-116 [3] was 21.7 µM; in the assay on HCT-116 [4] it was 16.4 µM; in the assay with MCF7 it was 11.2 µM; with A549 it was 16.6 µM; in the assay with NHDF it was 17.5 µM.

Compound `O=c1[nH]c(/C=C/c2ccc([N+](=O)[O-])cc2)nc2ccccc12` registered an inhibition in assay [1] of 29%. The IC50 in the assay with HCT-116 [3] and in the assay with HCT-116 [4] was over 25 µM in each case.

For `CNC(=O)c1ccccc1Sc1ccc2c(/C=C/c3ccccn3)n[nH]c2c1`, the inhibition in assay [1] came out at 44%.

Take `CCOc1ccccc1/C=C/c1nc2ccccc2c(=O)[nH]1`: the inhibition in assay [1] came out at 0%. Further, the IC50 with HCT-116 [3] is 23.3 µM; with HCT-116 [4] it was 6.43 µM; with MCF7 it was 6.26 µM; in the assay with A549 it was 21.8 µM; with NHDF it was over 25 µM.

The compound `COc1ccccc1/C=C/c1nc2ccccc2c(=O)[nH]1` came in with an inhibition in assay [1] of 0%. Further, the IC50 in assay [2] is 0.456 µM; with HCT-116 [3] it was 2.47 µM; in the assay with HCT-116 [4], 1.46 µM; in the assay with MCF7, 4.45 µM; in the assay on A549, over 25 µM; with NHDF it was over 25 µM.

As for `Cc1ccc(NC(=O)c2ccc(CN3CCN(C)CC3)cc2)cc1Nc1nccc(-c2cccnc2)n1` [IMATINIB], the inhibition in assay [1] worked out at 0%. For the same compound, the IC50 in the assay on MCF7, with A549 and in the assay with NHDF was over 25 µM throughout.

The compound `COc1ccc(/C=C/c2nc(NCCCN(C)C)c3ccccc3n2)cc1` displayed an inhibition in assay [1] of 31%. The IC50 in the assay with MCF7 was 27 µM; with A549, over 25 µM.

As to `CCCCOc1ccc(/C=C/c2nc3ccccc3c(=O)[nH]2)cc1`, the inhibition in assay [1] amounted to 0%. Moreover, the IC50 in the assay with HCT-116 [3], with HCT-116 [4], in the assay on MCF7 and with A549 was over 25 µM throughout.

On to `O=c1[nH]c(/C=C/c2ccc3c(c2)OCO3)nc2ccccc12`, for which, in assay [1], the inhibition was 4%. For the same compound, the IC50 in the assay on HCT-116 [3] and with HCT-116 [4] was over 25 µM each time.

Take `CCOc1ccc(/C=C/c2nc3ccccc3c(=O)[nH]2)cc1`: in [1], the inhibition turned out to be 0%. Besides, the IC50 with HCT-116 [3] and with HCT-116 [4] was over 25 µM throughout.

In assay [1], `Cc1nc(Nc2ncc(C(=O)Nc3c(C)cccc3Cl)s2)cc(N2CCN(CCO)CC2)n1` [DASATINIB] returned an inhibition of 92%. Moreover, the IC50 amounted to 3.58 µM with HCT-116 [3], 1.11 µM in the assay with MCF7, 23.7 µM with A549 and 0.71 µM in the assay on NHDF.

The compound `O=c1[nH]c(/C=C/c2cccc([N+](=O)[O-])c2)nc2ccccc12` displayed an inhibition in assay [1] of 0%. Further, the IC50 with HCT-116 [3] and in the assay on HCT-116 [4] was over 25 µM in each case.

In assay [1], `CC(=O)Oc1ccccc1/C=C/c1nc(Nc2ccccc2I)c2ccccc2n1` had an inhibition of 24%. Also, the IC50 with HCT-116 [3] is over 25 µM; with HCT-116 [4], over 25 µM; in the assay with MCF7 it was 15.6 µM; in the assay on A549 it was 16.4 µM; in the assay with NHDF it was 23.2 µM.

`COc1ccccc1/C=C/c1nc(Nc2ccccc2Cl)c2ccccc2n1` gave an inhibition in [1] of 0%. Further, the IC50 in the assay on HCT-116 [3] is over 25 µM; in the assay with HCT-116 [4] it was 16.1 µM; in the assay on MCF7, 18.9 µM; in the assay on A549, over 25 µM; in the assay with NHDF, over 25 µM.

On to `COc1ccccc1/C=C/c1nc(NCc2ccc3c(c2)OCO3)c2ccccc2n1`, for which the inhibition in assay [1] worked out at 1%. Further, the IC50 with HCT-116 [3] turned out to be 10.8 µM; in the assay on HCT-116 [4] it was 13.3 µM; with MCF7, 10.8 µM; in the assay with A549, 11.6 µM; with NHDF it was 14.4 µM.

In assay [1], `CC(=O)Oc1ccccc1/C=C/c1nc2ccccc2c(=O)[nH]1` yielded an inhibition of 0%. Further, the IC50 with HCT-116 [3] is over 25 µM; in the assay on HCT-116 [4], 17.2 µM; in the assay on MCF7 it was over 25 µM; in the assay on A549, over 25 µM; with NHDF, over 25 µM.

As to `CC(=O)Oc1ccc(/C=C/c2nc3ccccc3c(=O)[nH]2)c(OC(C)=O)c1`, the inhibition in assay [1] is 19%. The IC50 in the assay on HCT-116 [3] was over 25 µM; with HCT-116 [4], 23 µM; in the assay with MCF7, over 25 µM; in the assay with A549, over 25 µM; in the assay with NHDF it was over 25 µM.

In turn, `Oc1cccc(Nc2nc(/C=C/c3cc4c(cc3Br)OCO4)nc3ccccc23)c1` came in with an inhibition in [1] of 0%. Also, the IC50 in assay [2] is 0.287 µM; with HCT-116 [3], 4.38 µM; in the assay on HCT-116 [4], 5.03 µM; with MCF7, 4.38 µM; in the assay with A549, 7.41 µM; with NHDF it was 4.59 µM.

In turn, `COc1ccc(OC)c(Nc2nc(/C=C/c3ccccc3OC(C)=O)nc3ccccc23)c1` returned an inhibition in [1] of 63%. In addition, the IC50 is over 25 µM with HCT-116 [3]; over 25 µM in the assay with HCT-116 [4]; 7.84 µM in the assay with MCF7; over 25 µM with A549; over 25 µM in the assay with NHDF.

As to `COc1ccc(/C=C/c2nc3ccccc3c(=O)[nH]2)cc1`, in assay [1], the inhibition worked out at 2%. For the same compound, the IC50 with HCT-116 [3], in the assay with HCT-116 [4], in the assay on MCF7 and with A549 was over 25 µM in each case.

`COc1ccc(Cl)c(Nc2ncnc3cc(OCC4CCN(C)CC4)c(OC)cc23)c1` [AZM-475271]: the inhibition came to 76% in assay [1] and 8% in [5]. For the same compound, the IC50 in the assay on HCT-116 [3], in the assay on HCT-116 [4], in the assay on MCF7, with A549 and with NHDF was over 25 µM in each case.

As to `Oc1cccc(Nc2nc(/C=C/c3cccc(Cl)c3)nc3ccccc23)c1`, the inhibition in assay [1] stood at 0%. Besides, the IC50 in the assay with HCT-116 [3] and in the assay with HCT-116 [4] was over 25 µM in each case.

In [1], `O=c1[nH]c(/C=C/c2cccc3c2OCO3)nc2ccccc12` had an inhibition of 40%. For the same compound, the IC50 with HCT-116 [3] and with HCT-116 [4] was over 25 µM each time.

`CC(=O)Oc1cccc(/C=C/c2nc3ccccc3c(=O)[nH]2)c1` had an inhibition in assay [1] of 0%. The IC50 with HCT-116 [3] is 15.3 µM; in the assay on HCT-116 [4] it was 9.29 µM; in the assay on MCF7, 6.37 µM; in the assay with A549 it was over 25 µM; in the assay with NHDF, over 25 µM.

Consider `O=c1[nH]c(/C=C/c2cc3c(cc2Br)OCO3)nc2ccccc12`, for which the inhibition in [1] amounted to 0%. Moreover, the IC50 with HCT-116 [3], in the assay with HCT-116 [4], in the assay with MCF7 and with A549 was over 25 µM each time.

For `CCN(CC)CCCNc1nc(/C=C/c2ccc(OC)cc2)nc2ccc(Br)cc12`, the inhibition in assay [6] worked out at 0%.

With `O=c1[nH]c(/C=C/c2c(Br)ccc3c2OCO3)nc2ccccc12`, the inhibition in assay [1] came to 61%. Also, the IC50 was over 25 µM in the assay on HCT-116 [3]; over 25 µM with HCT-116 [4]; 12.8 µM with MCF7; 13.8 µM with A549; 14.8 µM in the assay with NHDF.

`COc1cccc(/C=C/c2nc3ccccc3c(=O)[nH]2)c1` returned an inhibition in assay [1] of 0%. The IC50 with HCT-116 [3] and in the assay on HCT-116 [4] was over 25 µM throughout.

In assay [1], `COc1ccc(/C=C/c2nc(Nc3cccc(O)c3)c3ccccc3n2)cc1` registered an inhibition of 0%. The IC50 in the assay with HCT-116 [3] is 22.9 µM; in the assay on HCT-116 [4], 22.9 µM; with MCF7, 14.7 µM; with A549 it was 20.8 µM; in the assay with NHDF, over 25 µM.

For `COc1ccccc1/C=C/c1nc(Nc2ccc(O)cc2)c2ccccc2n1`, the inhibition in assay [1] came to 0%. Further, the half-maximal inhibitory concentration (IC50) was over 25 µM in the assay with HCT-116 [3]; 17.9 µM with HCT-116 [4]; 8.29 µM in the assay with MCF7; 13 µM in the assay on A549; 13.8 µM in the assay on NHDF.
